Test results as given in the NIST ThermoML archive (doi:10.1016/j.tca.2009.05.014).

Settings: Crystal, Rate of evaporation

CC(C)(C)C(=O)/C=C(\[O-])C(C)(C)C.CC(C)(C)C(=O)/C=C(\[O-])C(C)(C)C.[Cu+2] [bis(2,2,6,6-tetramethyl-3,5-heptanedionato)copper(II)]
Settings	vapor or sublimation pressure [kPa]
375 K	4e-05
385 K	7.2e-05
395 K	0.000151
404 K	0.000343
415 K	0.00072
425 K	0.001456
435 K	0.002373
